Experimental data from ChEMBL document CHEMBL4732083, “Synthesis and anti-inflammatory activity of saponin derivatives of δ-oleanolic acid” (Eur J Med Chem, 2021).
Each block holds one molecule with its values, some of them ahead of it. Active and inactive are the calls of the source. The calls are words filed in the database; no cut-off is given here.

Legend:
[1] = Metabolic stability in human liver microsomes assessed as half life in presence of NADPH by LC-MS analysis; format: ADME, Microsome
[2] = Metabolic stability in mouse liver microsomes assessed as half life in presence of NADPH by LC-MS analysis; format: ADME, Microsome
[3] = Metabolic stability in human liver microsomes assessed as intrinsic clearance in presence of NADPH by LC-MS analysis; format: ADME, Microsome; conditions: read-out: CLH
[4] = Metabolic stability in mouse liver microsomes assessed as intrinsic clearance in presence of NADPH by LC-MS analysis; format: ADME, Microsome; conditions: read-out: CLH
[5] = Tmax in BALB/c mouse at 10 mg/kg, po by LC/MS-MS analysis; format: ADME, organism-based; conditions: in vivo
[6] = Tmax in BALB/c mouse at 2 mg/kg, iv by LC/MS-MS analysis; format: ADME, organism-based; conditions: in vivo
[7] = Cmax in BALB/c mouse at 10 mg/kg, po by LC/MS-MS analysis; format: ADME, organism-based; parameters: route oral, dose 10 mg/kg; conditions: in vivo
[8] = Cmax in BALB/c mouse at 2 mg/kg, iv by LC/MS-MS analysis; format: ADME, organism-based; parameters: route intravenous, dose 2 mg/kg; conditions: in vivo
[9] = AUC (0 to t) in BALB/c mouse at 10 mg/kg, po by LC/MS-MS analysis; format: ADME, organism-based; parameters: dose 10 mg/kg; conditions: in vivo
[10] = AUC (0 to t) in BALB/c mouse at 2 mg/kg, iv by LC/MS-MS analysis; format: ADME, organism-based; parameters: dose 2 mg/kg; conditions: in vivo
[11] = AUC (0 to infinity) in BALB/c mouse at 10 mg/kg, po by LC/MS-MS analysis; format: ADME, organism-based; parameters: route oral, time infinity, dose 10 mg/kg; conditions: in vivo
[12] = AUC (0 to infinity) in BALB/c mouse at 2 mg/kg, iv by LC/MS-MS analysis; format: ADME, organism-based; parameters: route intravenous, time infinity, dose 2 mg/kg; conditions: in vivo
[13] = Half life in BALB/c mouse at 10 mg/kg, po by LC/MS-MS analysis; format: ADME, organism-based; conditions: in vivo
[14] = Half life in BALB/c mouse at 2 mg/kg, iv by LC/MS-MS analysis; format: ADME, organism-based; conditions: in vivo
[15] = Bioavailability in BALB/c mouse at 10 mg/kg, po by LC/MS-MS analysis; format: ADME, organism-based; conditions: in vivo
THP-1 [16] = assay: Antiinflammatory activity in human THP-1 cells assessed as reduction in LPS-induced TNF alpha secretion at 10 uM incubated for 12 hrs measured by ELISA; format: functional, cell-based
THP-1 [17] = assay: Antiinflammatory activity in human THP-1 cells assessed as reduction in LPS-induced IL6 secretion at 10 uM incubated for 12 hrs measured by ELISA; format: functional, cell-based
[18] = target: T1, AMP-activated protein kinase, AMPK (Homo sapiens) (UniProt P54646+O43741+P54619+Q9UGJ0+Q9Y478+Q13131+Q9UGI9); assay: Activation of AMPK in human Huh-7 cells assessed as increase in AMPK phosphorylation at Thr172 residue at 10 uM measured after 12 hrs by Western blot analysis; format: cell-based; conditions: filed as activator
[19] = target: T1, AMP-activated protein kinase, AMPK (Homo sapiens); assay: Activation of AMPK in human Huh-7 cells assessed as increase in AMPK phosphorylation at Thr172 residue at 10 uM measured by Western blot analysis; format: cell-based; conditions: filed as activator, time hrs <=12, TDE = time-dependent effect
[20] = target: T1, AMP-activated protein kinase, AMPK (Homo sapiens); assay: Activation of AMPK in human HepG2 cells assessed as increase in AMPK phosphorylation at Thr172 residue at 10 uM measured by Western blot analysis; format: cell-based; conditions: filed as activator, time hrs <=12, TDE = time-dependent effect
[21] = target: T1, AMP-activated protein kinase, AMPK (Homo sapiens); assay: Activation of AMPK in human Huh-7 cells assessed as increase in AMPK phosphorylation at Thr172 measured upto 12 hrs by Western blot analysis; format: cell-based; conditions: filed as activator, dose microM <=20, time hrs <=12
[22] = target: T1, AMP-activated protein kinase, AMPK (Homo sapiens); assay: Activation of AMPK in human HepG2 cells assessed as increase in AMPK phosphorylation measured upto 12 hrs by Western blot analysis; format: cell-based; conditions: filed as activator, dose microM <=20, time hrs <=12
[23] = target: T1, AMP-activated protein kinase, AMPK (Homo sapiens); assay: Activation of AMPK in human Huh-7 cells assessed as increase in acetyl-CoA carboxylase phosphorylation at Ser79 residue at 10 uM measured by Western blot analysis; format: cell-based; conditions: filed as activator, time hrs <=12, TDE = time-dependent effect
[24] = target: T1, AMP-activated protein kinase, AMPK (Homo sapiens); assay: Activation of AMPK in human HepG2 cells assessed as increase in acetyl-CoA carboxylase phosphorylation at Ser79 residue at 10 uM measured by Western blot analysis; format: cell-based; conditions: filed as activator, time hrs <=12, TDE = time-dependent effect
[25] = target: T1, AMP-activated protein kinase, AMPK (Homo sapiens); assay: Activation of AMPK in human Huh-7 cells assessed as increase in acetyl-CoA carboxylase phosphorylation at Ser79 measured upto 12 hrs by Western blot analysis; format: cell-based; conditions: filed as activator, dose microM <=20, time hrs <=12
[26] = target: T1, AMP-activated protein kinase, AMPK (Homo sapiens); assay: Activation of AMPK in human HepG2 cells assessed as increase in acetyl-CoA carboxylase phosphorylation at Ser79 measured upto 12 hrs by Western blot analysis; format: cell-based; conditions: filed as activator, dose microM <=20, time hrs <=12
THP-1 [27] = assay: Cytotoxicity against human THP-1 cells assessed as reduction in cell viability at 1 to 10 uM; format: cell-based; conditions: thp-1, 10 µM

- Activity [18]: Active
Compound: CC1(C)[C@@H](O)CC[C@]2(C)[C@H]3C(=O)C=C4[C@@H]5C[C@@](C)(C(=O)O)CC[C@]5(C)CC[C@@]4(C)[C@]3(C)CC[C@@H]12

- Activity [18]: Active
Compound: C[C@H]1[C@H](C)CC[C@]2(C(=O)O)CC[C@]3(C)C(=CC[C@@H]4[C@@]5(C)C[C@@H](O)[C@H](O)[C@@](C)(CO)[C@@H]5CC[C@]43C)[C@H]12

- half-life [1]: 0.751 h
- half-life [2]: > 2 h
- CLint scaled [3]: 38.6 mL/min/kg
- Tmax [5]: 2.67 h
- Tmax [6]: 4.8 min
- Cmax [7]: 728 ng/mL
- Cmax [8]: 3500 ng/mL
- AUC(0-t) [9]: 3000 ng·h/mL
- AUC(0-t) [10]: 3220 ng·h/mL
- AUC(0-inf) [11]: 3080 ng·h/mL
- AUC(0-inf) [12]: 3300 ng·h/mL
- half-life [13]: 1.14 h
- half-life [14]: 1.74 h
- bioavailability [15]: 18.6%
Compound: CC1(C)CC[C@]2(C(=O)O[C@@H]3OC[C@@H](O)[C@H](O)[C@H]3O)CC[C@]3(C)C(=C2C1)CC[C@@H]1[C@@]2(C)CC[C@H](O[C@@H]4OC[C@H](O)[C@H](O)[C@H]4O)C(C)(C)[C@@H]2CC[C@]13C
- Activity (THP-1 [16]): Active
- Activity (THP-1 [17]): Active
- Activity (THP-1 [27]): Non-Toxic

- Activity [18]: Active
Compound: C[C@H]1[C@H](C)CC[C@]2(C(=O)O)CC[C@]3(C)C(=CC[C@@H]4[C@@]5(C)CC[C@H](O)C(C)(C)[C@@H]5CC[C@]43C)[C@H]12

- Activity [18]: Active
Compound: C[C@H]1[C@H](C)CC[C@]2(C(=O)O)CC[C@]3(C)C(=CC[C@@H]4[C@@]5(C)C[C@@H](O)[C@H](O)C(C)(C)[C@@H]5CC[C@]43C)[C@H]12

Second part, the molecule before the results:

Compound: CC1(C)CC[C@]2(C(=O)O)CC[C@]3(C)C(=C2C1)CC[C@@H]1[C@@]2(C)CC[C@H](O[C@@H]4OC[C@H](O)[C@H](O)[C@H]4O[C@@H]4OC[C@@H](O)[C@H](O)[C@H]4O)C(C)(C)[C@@H]2CC[C@]13C
- half-life [1]: > 2 h
- half-life [2]: > 2 h
- CLint scaled [3]: 3.25 mL/min/kg
- CLint scaled [4]: 2.34 mL/min/kg
- Tmax [5]: 0.75 h
- Tmax [6]: 4.8 min
- Cmax [7]: 54.2 ng/mL
- Cmax [8]: 8820 ng/mL
- AUC(0-t) [9]: 145 ng·h/mL
- AUC(0-t) [10]: 2570 ng·h/mL
- AUC(0-inf) [11]: 151 ng·h/mL
- AUC(0-inf) [12]: 2590 ng·h/mL
- half-life [13]: 1.26 h
- half-life [14]: 2.25 h
- bioavailability [15]: 1.13%

Compound: CC1(C)CC[C@]2(C(=O)O)CC[C@]3(C)C(=C2C1)CC[C@@H]1[C@@]2(C)CC[C@H](O[C@@H]4OC[C@H](O)[C@H](O)[C@H]4O[C@@H]4O[C@H](CO)[C@@H](O)[C@H](O)[C@H]4O)C(C)(C)[C@@H]2CC[C@]13C
- Activity (THP-1 [16]): Active
- Activity (THP-1 [17]): Active

Compound: C[C@H]1[C@H](C)CC[C@]2(C(=O)O)CC[C@]3(C)C(=CC[C@@H]4[C@@]5(C)C[C@@H](O)[C@H](O)[C@@](C)(CO)[C@@H]5[C@H](O)C[C@]43C)[C@H]12
- Activity [18]: Active

Compound: CC1(C)[C@@H](O[C@H]2O[C@H](C(=O)O)[C@@H](O)[C@H](O)[C@H]2O[C@@H]2O[C@H](C(=O)O)[C@@H](O)[C@H](O)[C@H]2O)CC[C@]2(C)[C@H]3C(=O)C=C4[C@@H]5C[C@@](C)(C(=O)O)CC[C@]5(C)CC[C@@]4(C)[C@]3(C)CC[C@@H]12
- Activity [18]: Active

Compound: CC1(C)CC[C@]2(C(=O)O)CC[C@]3(C)C(=C2C1)CC[C@@H]1[C@@]2(C)CC[C@H](O)C(C)(C)[C@@H]2CC[C@]13C
- Activity [18]: Active
- Activity [19]: Tde
- Activity [20]: Tde
- Activity [21]: Dose-dependent effect
- Activity [22]: Dose-dependent effect
- Activity [23]: Tde
- Activity [24]: Tde
- Activity [25]: Dose-dependent effect
- Activity [26]: Dose-dependent effect
- Activity (THP-1 [27]): Non-Toxic

Compound: CC1(C)CC[C@]2(C(=O)O)CC[C@]3(C)C(=CC[C@@H]4[C@@]5(C)CC[C@H](O)[C@@](C)(CO)[C@@H]5CC[C@]43C)[C@@H]2C1
- Activity [18]: Active

Compound: CC1(C)CC[C@]2(C(=O)O)CC[C@]3(C)C(=CC[C@@H]4[C@@]5(C)CC[C@H](O[C@@H]6O[C@H](C(=O)O)[C@@H](O)[C@H](O[C@@H]7OC[C@@H](O)[C@H](O)[C@H]7O)[C@H]6O)C(C)(C)[C@@H]5CC[C@]43C)[C@@H]2C1
- Activity [18]: Active
